{"source": "patent US20240390360A1", "about": "“Therapeutic Combinations Of Orally Administered Paclitaxel, A P-gp Inhibitor, And A Checkpoint Inhibitor For The Treatment Of Solid Tumors” (Athenex, Inc., priority 2021, published 2024)", "key": {"[1]": {"system": "subjects with advanced solid tumours", "type": "in vivo"}, "[2]": {"system": "non-small cell lung cancer", "assay": "Best responses of the NSCLC subjects to prior anti-PD-1/anti-PD-L1 therapy", "type": "in vivo, human", "conditions": "prior therapy before this study (five pembrolizumab, three nivolumab, two atezolizumab), all discontinued due to progressive disease"}}}
{"compound": "pembrolizumab: checkpoint inhibitor, administered intravenously", "values": [{"measurement": "fatal pneumonitis, number", "setting": "[1]; cohort six during cycle 8, attributed to pembrolizumab", "value": "One"}]}
{"compound": "COc1cc2c(cc1OC)CN(CCc1ccc(-n3nnc(-c4cc(OC)c(OC)cc4NC(=O)c4cc(=O)c5ccccc5o4)n3)cc1)CC2", "note": "[Compound A]", "values": [{"measurement": "recommended Phase 2 dose (RP2D)", "setting": "[1]; QD Days 1-3 (Days 1-3, 8-10) for 2 weeks of a 3-week cycle, in combination with pembrolizumab", "value": 15, "unit": "mg"}]}
{"compound": "atezolizumab: prior immunotherapy (anti-PD-L1) of NSCLC subjects", "values": [{"measurement": "best response to the prior immunotherapy: SD, number of subjects", "setting": "[2]", "value": 1}, {"measurement": "best response to the prior immunotherapy: response (non-RECIST), number of subjects", "setting": "[2]", "value": 1}]}
